From patent US5710126A, “T cell epitopes of ryegrass pollen allergen” (ImmuLogic Pharmaceutical Corporation, priority 1995, dated 1998)

Tested on: T cell lines from grass-allergic patients primed in vitro with affinity purified Lol p V
Experiment: T cell proliferation (tritiated thymidine uptake) of Lol p V-primed T cell lines restimulated with peptides or proteins
Assay type: cell-based, human
Settings: for mean T cell stimulation index (S.I.): mean of positive responses (S.I. at least 2), FIGS. 4 and 5
From the text: As discussed in Example 2, human T cell stimulating activity can be tested by culturing T cells obtained from an individual sensitive to Lol p V allergen, (i.e., an individual who has an IgE mediated immune response to Lol p V allergen) with a peptide derived from the allergen and determining whether proliferation of T cells occurs in response to the peptide as measured, e.g., by cellular uptake of tritiated thymidine. Stimulation indices for responses by T cells to peptides can be calculated as the maximum CPM in response to a peptide divided by the control CPM. A stimulation index (S.I.) equal to or greater than two times the background level is considered "positive". Positive results are used to calculate the mean stimulation index for each peptide for the group of patients tested. In FIGS. 4 and 5 the mean T cell stimulation index is indicated above the bar. Preferred peptides of this invention comprise at least one T cell epitope and have a mean T cell stimulation index of greater than or equal to 2.0. A peptide having a mean T cell stimulation index of greater than or equal to 2.0 in a significant number of ryegrass pollen sensitive patients tested is considered useful as a therapeutic agent. Preferred peptides have a mean T cell stimulation index of at least 2.5, more preferably at least 3.0, more preferably at least 3.5, more preferably at least 4.0, more preferably at least 5.0 and most preferably at least about 6. For example, peptides of the invention having a mean T cell stimulation index of at least 5, as indicated by data shown in FIGS. 4 and 5, include peptides LPIX-4 (SEQ ID NO:6), LPIX-5 (SEQ ID NO:7), LPIX-8 (SEQ ID NO:10) LPIX-17 (SEQ ID NO:19) and LPIX-19 (SEQ ID NO:21).
In addition, preferred peptides have a positivity index (P.I.) of at least about 60, more preferably about 100, more preferably at least about 200 and most preferably at least about 300. The positivity index for a peptide is determined by multiplying the mean T cell stimulation index by the percent of individuals, in a population of individuals sensitive to ryegrass pollen (e.g., preferably a population of at least 15 individuals,more preferably a population of at least 30 individuals or more), who have a T cell stimulation index to such peptide of at least 2.0. Thus, the positivity index represents both the strength of a T cell response to a peptide (S.I.) and the frequency of a T cell response to a peptide in a population of individuals sensitive to ryegrass pollen. In FIG. 4, the bar represents the positivity index and the percent of individuals tested who have a T cell stimulation index of at least 2.0 to that peptide are indicated in parenthesis above each bar (the mean T cell stimulation index is also indicated above each bar). […] Lol p V peptides having a positivity index of at least about 100 and a mean T cell stimulation index of at least about 4 include: LPIX-4 (SEQ ID NO:6), LPIX-5 (SEQ ID NO:7), and LPIX-17 (SEQ ID NO:19).
In FIG. 5, the bar represents the cumulative rank of the peptide response in the group of patients tested as described in Example 2. To determine the cumulative rank, the 5 peptides with the highest S.I. in each individual were determined and assigned a numerical rank in descending order, with 5 representing the strongest response. The ranks for each peptide were then summed for the entire group of patients tested to determine the cumulative rank for the peptide. Above each bar is the mean S.I. for each peptide and the percent of positive responses (in parenthesis) with an S.I. of at least 2 to the peptide in the group of patients tested.
This amount of priming antigen was determined to be optimal for the activation of T cells from most grass-allergic patients. Viable cells were purified by LSM centrifugation and cultured in complete medium, supplemented with 5 units recombinant human IL-2/ml and 5 units recombinant human IL-4/ml for up to 3 weeks until the desired cell number were achieved. […]

Substance	mean T cell stimulation index (S.I.) (19 patients)	positivity index (P.I.; % of patients responding multiplied by mean S.I.) (19 patients, FIG. 4)	other results
LPIX-19: synthetic overlapping peptide derived from Lol p V, sequence shown in FIG. 2 (NKALNECTGGAYETYKFIPS)	at least 5	–	–
LPIX-5: synthetic overlapping peptide derived from Lol p V, sequence shown in FIG. 2 (GFKAAVAAAANAPPADKFKI)	–	–	percent of positive responses (patients with S.I. of at least 2.0) (group of 19 patients tested, FIG. 4): 26.3%
LPIX-4: synthetic overlapping peptide derived from Lol p V, sequence shown in FIG. 2 (EQKLLEDVNAGFKAAVAAAA)	–	at least 100	–
LPIX-8: synthetic overlapping peptide derived from Lol p V, sequence shown in FIG. 2 (GLLATSAAKAPGLIPKLDTA)	at least 5	–	–
LPIX-17: synthetic overlapping peptide derived from Lol p V, sequence shown in FIG. 2 (ATAANAAPTNDKFTVFESAF)	–	at least 100	–
LPIX-20: synthetic overlapping peptide derived from Lol p V, sequence shown in FIG. 2 (AYETYKFIPSLEAAVKQAYA)	–	–	ranked sum (cumulative rank of the peptide response) (19 patients, 5 highest S.I. per individual ranked and summed, FIG. 5): highest ranked sum
